Data reported in patent US20190315775A1, “MODIFIED […] AND PHARMACEUTICAL COMPOSITION HAVING SAME AS ACTIVE INGREDIENT” (KEIO UNIVERSITY, priority 2016, published 2019).

Experiment: Mouse blood kinetics upon single intraperitoneal administration
Type: in vivo
Conditions: male, ICR, plasma, ip, mice, single intraperitoneal TC11 60 mg/kg BW
Description: First, PEG11(E)-TC11(A) and PEG11(O)-TC11(B) were examined for stability in mouse blood. To 5-week-old male ICR mice (CLEA Japan, Tokyo, Japan), PEG11(E)-TC11 and PEG11(O)-TC11 were administered intraperitoneally at 59.1 mg/kg BW and 54.6 mg/kg BW, respectively, in such a manner that each molar concentration was equivalent to that of 20 mg/kg BW of TC11. At 0, 0.5, 1, 1.5, 4, 8, 12, and 24 hours later, a tail vein was punctured with a 26G needle for bleeding, and then about 100 μL of blood was collected using a heparinized hematocrit capillary tube (Terumo, Tokyo, Japan). After blood collection, blood was transferred into a 0.5-mL tube, and then subjected to centrifugation at 4° C. and 3,400 G for 15 minutes. Subsequently, the supernatant was collected, and then cryopreserved at −80° C. A quality control serum, Consera (registered trademark) (Nissui pharmaceutical, Tokyo, Japan) was dissolved in 3 mL of distilled water (dH2O) per bottle. After left to stand for 30 minutes, bottles were turned upside-down (mixing by inversion) and then used. Consera (190 μL) was mixed with the collected blood plasma and 10 μL of urine, thereby preparing samples. Moreover, PEG11(E)-TC11 and HOEtO-TC11 were each diluted with dH2O in such a manner that the concentrations were 0, 2, 4, 6, 8, and 10 μM, and then 10 μL of the solution at each concentration and 190 μL of Consera were mixed, thereby preparing a calibration curve sample. […]
HPLC analysis was conducted using Inertsil (registered trademark) ODS-3 […]×Φ4.6 mm as a stationary phase, CH3CN:dH2O=50:50 as a mobile phase, a flow rate of 0.70 mL/min, a UV detection wavelength of 267 nm, and an excitation wavelength of 380 nm, a fluorescence wavelength of 530 nm, and an injection amount of 10 μL at a column temperature of 25° C.
PEG11(E)-TC11 was examined. […] Note that as described in Example 7, since PEG11(E)-TC11 is quickly hydrolyzed by esterase in blood and then converted to HOEtO-TC11, the blood HOEtO-TC11 level was measured.

CC(C)c1cccc(C(C)C)c1N1C(=O)c2ccc(N)cc2C1=O [TC11, 2-(2,6-di-isopropylphenyl)-5-amino-1H-isoindole-1,3-dione, reference compound]
Cmax (read-out: Cmax, highest blood level): 2600 nM
half-life (read-out: t1/2, serum half-life (converted)): 1.4 h
Tmax (read-out: tmax, time at which the blood level reached the highest level): 1.5 h
